Source: patent US6620961B1, “Biarylalkylenecarbamic acid derivatives and bacteriocides for agricultural and horticultural use” (Kumiai Chemical Industry Co., Ltd., priority 1997, dated 2003)

Tests used:
Format in all cases: in vivo
[1] = tested on: Pseudoperonospora cubensis; experiment: Test for Preventive Effect on Cucumber Downy Mildew; set-up: key: A: No diseased area; B: Diseased area of less than 25%; C: Diseased area of at least 25% but less than 50%; Diseased area of at least 50%; settings: cucumber seedlings, wettable powder at 500 ppm active ingredient, 7 days after inoculation
Protocol: Test for Preventive Effect on Cucumber Downy Mildew 9 cucumber seeds (variety: Sagami-hanpaku) were sown in each 9 cmx9 cm polyvinyl chloride pot and grown in a greenhouse for 7 days. […] Then, the seedlings were inoculated with Pseudoperonospora cubensis zoosporangia in suspension by spraying and immediately placed in a moist chamber at 22° C. for 24 hours. Thereafter, the seedlings were placed in a greenhouse. 7 days after the inoculation, the total diseased area in each pot was observed and evaluated on the basis of the standards shown in Table 59. [table]

[2] = tested on: Erysiphe graminis; experiment: Test for Preventive Effect on Wheat Powdery Mildew; set-up: key: A: No diseased area; B: Diseased area of less than 25%; C: Diseased area of at least 25% but less than 50%; Diseased area of at least 50%; settings: wheat seedlings (Norin-61-go), 500 ppm active ingredient, 10 ml per pot, 10 days after inoculation
Protocol: [table] Test for Preventive Effect on Wheat Powdery Mildew 9 wheat seeds (variety: […] Then, the seedlings were inoculated with […] graminis spores in suspension and placed in a greenhouse at 25 to 30° C. 10 days after the inoculation, the total diseases area of the first leaves in each pot was observed and evaluated on the basis of the standards shown in Table 59. The results are shown in Tables 67 to 71.

[3] = tested on: Venturia inaequalis; experiment: Test for Preventive Effect on Apple Scab; set-up: key: A: No diseased area; B: Diseased area of less than 25%; C: Diseased area of at least 25% but less than 50%; Diseased area of at least 50%; settings: 14 days after inoculation; for Evaluation (diseased area of the upper two inoculated leaves): apple seedlings (Kogyoku), 500 ppm active ingredient, 20 ml per pot; for Evaluation (diseased areas of the upper two of the inoculated leaves): apple seedlings, wettable powder at 500 ppm active ingredient, preventive
Protocol: [table] Test for Preventive Effect on Apple Scab 5 apple seeds (variety: Kogyoku) were sown in each 9 cm×9 cm polyvinyl chloride pot and grown in a greenhouse for 20 days. […] Then, the seedlings were inoculated with Venturia inaequalis spores in suspension by spraying and immediately placed in a moist chamber at 22° C. for 48 hours. Thereafter, the seedlings were placed in a greenhouse for development of the disease. 14 days after the inoculation, the diseased areas of the upper two of the inoculated leaves were observed and evaluated on the basis of the standards shown in Table 59.

[4] = tested on: Botrytis cinerea; experiment: Test for Preventive Effect on Cucumber Gray Mold; settings: cotyledonary cucumber seedlings (Sagami-hanziro), 500 ppm active ingredient, 10 ml per pot, 3 days after inoculation
Protocol: [table] Test for Preventive Effect on Cucumber Gray Mold 9 cucumber seeds (variety: Sagami-hanziro) were sown in each 9 cm−9 cm polyvinyl chloride pot and grown in a greenhouse for 7 days. […] Then, the seedlings were inoculated with milled Botrytis cinerea hyphae in solution by spraying and immediately placed in a moist chamber at 22° C. 3 days after the inoculation, the total diseased area in each pot was observed and evaluated on the basis of the standards shown in Table 59.

SMILES	Evaluation (total diseased area in each pot) [1]	Evaluation (total diseased area of the first leaves in each pot) [2]	Evaluation (diseased area of the upper two inoculated leaves) [3]	Evaluation (total diseased area in each pot) [4]	Evaluation (diseased areas of the upper two of the inoculated leaves) [3]
COC(=O)NC(C)c1cccc(-c2ccccc2)c1 (racemic) [3-1]	A	B (Diseased area of less than 25%)	A		
COC(=O)NC(C)c1cccc(-c2ccc(Cl)cc2)c1 (racemic) [3-5]		B (Diseased area of less than 25%)	A	B (Diseased area of less than 25%)	
COC(=O)NC(C)c1cccc(-c2cccc(C)c2)c1 (racemic) [3-6]	A	A	A		
COC(=O)NC(C)c1cccc(-c2cccc(C(F)(F)F)c2)c1 (racemic) [3-16]	A	A	A		
COC(=O)NC(C)c1cccc(-c2ccc(F)c(Cl)c2)c1 (racemic) [3-21]	A	B (Diseased area of less than 25%)	A		
COC(=O)NCc1cccc(-c2cccc(Cl)c2)c1 [1-3]	A	A			A
COC(=O)NCc1cccc(-c2ccc(F)cc2)c1 [1-7]	B (Diseased area of less than 25%)	A			A
COC(=O)NCc1cccc(-c2ccccc2C(F)(F)F)c1 [1-33]	B (Diseased area of less than 25%)	A			A
COC(=O)NCc1cccc(-c2cccc(C(F)(F)F)c2)c1 [1-34]	A	A			A
COC(=O)NCc1cccc(-c2cccc(OC)c2)c1 [1-41]	A	A			A
COC(=O)NCc1cccc(-c2cccc([N+](=O)[O-])c2)c1 [1-103]	B (Diseased area of less than 25%)				A
COC(=O)NCc1cccc(-c2ccc(Cl)c(Cl)c2)c1 [1-118, Methyl N-[3-(3,4-dichlorophenyl)benzyl]carbamate]	B (Diseased area of less than 25%)	A			A
COC(=O)NCc1cccc(-c2cc(Cl)cc(Cl)c2)c1 [1-119]	B (Diseased area of less than 25%)	A			A
COC(=O)NCc1cccc(-c2ccc(C)c(C)c2)c1 [1-125]	A	A			A
CNC(=O)NCc1cccc(-c2ccccc2)c1 [1-253]	B (Diseased area of less than 25%)				
COC(=O)N(Cc1cccc(-c2cccc(C)c2)c1)OC [1-266]	B (Diseased area of less than 25%)	A			A
COC(=O)NCc1ccc(F)c(-c2ccc(Cl)cc2)c1 [2-21]		B (Diseased area of less than 25%)			A
COC(=O)NCc1ccc(F)c(-c2cccc(C)c2)c1 [2-22]		B (Diseased area of less than 25%)			A
COC(=O)NCc1ccc(OC)c(-c2ccccc2)c1 [2-65]				B (Diseased area of less than 25%)	B (Diseased area of less than 25%)

SMILES	Evaluation (total diseased area in each pot) [1]	Evaluation (total diseased area of the first leaves in each pot) [2]	Evaluation (diseased area of the upper two inoculated leaves) [3]	Evaluation (total diseased area in each pot) [4]	Evaluation (diseased areas of the upper two of the inoculated leaves) [3]
COC(=O)NCc1cc(C)cc(-c2ccccc2)c1 [2-91]	B (Diseased area of less than 25%)	A			A
COC(=O)NCc1cc(C)cc(-c2ccc(Cl)cc2)c1 [2-95]		A			A
COC(=O)NCc1cc(C)cc(-c2ccc(C)cc2)c1 [2-97]		A			A
COC(=O)NCc1cc(C)cc(-c2cccc(C(F)(F)F)c2)c1 [2-98]	B (Diseased area of less than 25%)	A			A
COC(=O)NCc1cc(-c2ccccc2)ccc1F [2-102]	A	A			A
COC(=O)NCc1cc(-c2cccc(Cl)c2)ccc1F [2-106]	A	A			A
COC(=O)NCc1cc(-c2ccc(Cl)cc2)ccc1F [2-107]	A	A			A
COC(=O)NCc1cc(-c2cccc(C)c2)ccc1F [2-109]	A	A			A
COC(=O)NCc1cc(-c2ccc(C)cc2)ccc1F [2-110]	A	B (Diseased area of less than 25%)			A
CCc1ccc(-c2ccc(F)c(CNC(=O)OC)c2)cc1 [2-112]		B (Diseased area of less than 25%)			A
COC(=O)NCc1cc(-c2cccc(C(C)C)c2)ccc1F [2-113]	B (Diseased area of less than 25%)	A			A
COC(=O)NCc1cc(-c2ccc(C(C)C)cc2)ccc1F [2-114]		A			A
COC(=O)NCc1cc(-c2cccc(C)c2)ccc1OC [2-333]	A	B (Diseased area of less than 25%)	A		
COC(=O)NCc1cc(-c2cccc(C(F)(F)F)c2)ccc1OC(F)F [2-365]		B (Diseased area of less than 25%)	A		
COC(=O)NCc1cc(-c2ccc(F)c(F)c2)ccc1F [2-412]		A	A		
COC(=O)NCc1cc(-c2ccc(F)c(F)c2)ccc1Cl [2-461]		A	A		
COC(=O)NCc1cc(-c2ccc(F)c(Cl)c2)ccc1Cl [2-465]		A	A		
COC(=O)N(Cc1cccc(-c2ccccc2)c1C)OC [4-22, Methyl N-methoxy-N-(2-methyl-3-phenylbenzyl)carbamate]		A	A		
COC(=O)NCc1cccc(-c2ccc3ccccc3c2C)c1 [6-1]		B (Diseased area of less than 25%)	A		
